These are literature values, as cited in patent US9700048B2, “Agroformulation comprising copolymer of vinyllactam, N-alkyl acrylamide, and alkyl (meth)acrylate” (BASF SE, priority 2012, dated 2017).

The structures appear in SMILES notation. In brackets after ≈: the same amount, converted by molar mass.

The conditions of the data set: at 20° C.

`Cn1cc(C(=O)Nc2ccccc2-c2cc(F)c(F)c(F)c2)c(C(F)F)n1` [fluxapyroxad]: the solubility in water was 3.88 µg/mL (≈ 10.2 µM).
